# Experimental data reported in PMC11357054, “Azobenzenesulfonamide Carbonic Anhydrase Inhibitors as New Weapons to Fight Helicobacter pylori: Synthesis, Bioactivity Evaluation, In Vivo Toxicity, and Computational Studies” (Pharmaceuticals, 2024).
# Where two headings read alike, the source gives them in different places.
# Legend:
# PgiγCA = target: T1, PgiγCA; experiment: stopped-flow CO2 hydration; type: biochemical, Porphyromonas gingivalis; conditions: pH […] HEPES, […] Na2SO4, […] min preincubation, r.t.; read-out: KI (nM) * / Bacterial Isoforms / Pgi γCA
# T1 construct: gene PgiCA; recombinant, obtained in-house
# EcoβCA [1] = target: T2, EcoβCA (Escherichia coli, UniProt P61517); experiment: stopped-flow CO2 hydration; type: biochemical; conditions: read-out: KI (nM) * / Bacterial Isoforms / Eco βCA
# T2 construct: gene can; recombinant, obtained in-house
# HpαCA = target: T3, HpαCA (Helicobacter pylori, UniProt B5Z8I0); experiment: stopped-flow CO2 hydration; type: biochemical
# T3 construct: gene HPG27_1129; recombinant, obtained in-house; PDB 4XFW is given for docking only
# T3 sequence (B5Z8I0 22-247): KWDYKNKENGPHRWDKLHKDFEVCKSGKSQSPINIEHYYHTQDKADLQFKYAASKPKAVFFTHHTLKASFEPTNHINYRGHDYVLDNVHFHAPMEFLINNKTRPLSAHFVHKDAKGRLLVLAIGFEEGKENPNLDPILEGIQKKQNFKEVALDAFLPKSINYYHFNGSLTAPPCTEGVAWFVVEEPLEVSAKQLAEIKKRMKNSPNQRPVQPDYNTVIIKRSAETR
# HpβCA = target: T4, HpβCA (Helicobacter pylori, UniProt Q9ZN54); experiment: stopped-flow CO2 hydration; type: biochemical; conditions: read-out: KI (nM) * / Bacterial Isoforms / Hp βCA
# T4 construct: gene cynT; recombinant, obtained in-house
# T4 sequence (Q9ZN54 1-221): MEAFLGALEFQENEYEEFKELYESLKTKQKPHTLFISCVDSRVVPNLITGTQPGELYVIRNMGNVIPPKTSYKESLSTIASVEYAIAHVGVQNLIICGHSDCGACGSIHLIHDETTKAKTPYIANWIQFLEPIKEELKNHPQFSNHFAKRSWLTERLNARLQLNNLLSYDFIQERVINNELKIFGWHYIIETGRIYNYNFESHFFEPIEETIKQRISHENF
# hCA XII [2] = target: T5, hCA XII (Homo sapiens, UniProt O43570); experiment: stopped-flow CO2 hydration; type: biochemical; conditions: read-out: KI (nM) * / Human Isoforms / hCA XII
# T5 construct: gene CA12
# Excerpt: stopped-flow CO2 hydration on hCA XII
# hCA II = target: T6, hCA II (Homo sapiens, UniProt P00918); experiment: stopped-flow CO2 hydration; type: biochemical; conditions: read-out: KI (nM) * / Human Isoforms / hCA II
# T6 construct: gene CA2; purchased from Merck
# Excerpt: stopped-flow CO2 hydration on hCA II
# PsCA3 [3] = target: T7, PsCA3 (Pseudomonas aeruginosa, UniProt Q9HVB9); experiment: stopped-flow CO2 hydration; type: biochemical; conditions: read-out: KI (nM) * / Bacterial Isoforms / Ps CA3
# T7 construct: gene PA4676; recombinant, obtained in-house
# T7 sequence (Q9HVB9 1-215): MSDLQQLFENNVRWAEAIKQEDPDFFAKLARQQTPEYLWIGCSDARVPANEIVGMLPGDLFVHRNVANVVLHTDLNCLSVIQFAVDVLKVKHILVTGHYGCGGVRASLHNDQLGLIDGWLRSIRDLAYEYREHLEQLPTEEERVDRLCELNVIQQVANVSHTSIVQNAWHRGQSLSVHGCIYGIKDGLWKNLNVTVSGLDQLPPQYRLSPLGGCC
# hCA I [4] = target: T8, hCA I (Homo sapiens, UniProt P00915); experiment: stopped-flow CO2 hydration; type: biochemical; conditions: read-out: KI (nM) * / Human Isoforms / hCA I
# T8 construct: gene CA1; purchased from Merck
# Excerpt: stopped-flow CO2 hydration on hCA I
# hCA IX [5] = target: T9, hCA IX (Homo sapiens, UniProt Q16790); experiment: stopped-flow CO2 hydration; type: biochemical; conditions: read-out: KI (nM) * / Human Isoforms / hCA IX
# T9 construct: gene CA9
# Excerpt: stopped-flow CO2 hydration on hCA IX
# H. pylori ATCC 43504 = tested on: T10, H. pylori ATCC 43504; experiment: microbe, parasite or virus in culture; design: species or system Helicobacter pylori ATCC 43504; MIC by broth microdilution, alamarBlue and CFU count; MBC by CFU count; conditions: Helicobacter pylori, ATCC43504
# T10 construct: ATCC 43504
# Protocol: H. pylori ATCC 43504 was cultured on a Columbia Agar base (Becton Dickinson and Company, Franklin Lakes, NJ, USA) supplemented with 10% horse serum (Merck, St. Louis, MO, USA) and 0.25% yeast extract (Oxoid Ltd., Hampshire, UK), incubated at 37 °C for 72 h in a microaerophilic atmosphere (CampyGen, Thermo Fisher Scientific, Milan, Italy). Colonies were collected and transferred into 10 mL of Brain Heart Infusion broth (BHI, Oxoid Ltd., Hampshire, UK) supplemented with 5% (v/v) of fetal bovine serum (FBS, Merck, Milan, Italy) and incubated overnight at 37 °C, at 125 rpm under microaerophilic conditions. After 18 h of incubation, the broth culture was diluted to obtain a bacterial suspension of 10^6 CFU/mL. MICs were determined by three different assays: the broth micro-dilution method, the alamarBlue assay, and the CFU count. […] This bacterium was selected based on the inhibitory potency evidenced by the two series of azobenzenesulfonamides against the HpCAs.
# PgiβCA = target: T11, PgiβCA; experiment: stopped-flow CO2 hydration; type: biochemical, Porphyromonas gingivalis; conditions: pH […] HEPES, […] Na2SO4, […] min preincubation, r.t.; read-out: KI (nM) * / Bacterial Isoforms / Pgi βCA
# T11 construct: gene PgiCAb; recombinant, obtained in-house
# EcoβCA [6] = target: T2, EcoβCA; experiment: biochemical; conditions: read-out: Bacterial Isoforms / Eco βCA
# Protocol: (§1) An Applied Photophysics stopped-flow instrument was used to evaluate the ability of the test compounds to inhibit CA-catalyzed CO2 hydration. […] The CO2 concentrations ranged from 1.7 to 17 mM for the determination of the kinetic parameters and inhibition constants. Enzyme concentrations spanned from 5 to 12 nM. Stock solutions of the inhibitor (0.1 mM) were prepared in distilled–deionized water, and dilutions up to 0.01 nM were prepared with the assay buffer. Inhibitor and enzyme solutions were preincubated for 15 min at r.t. for the formation of the E–I complex. The inhibition constants were obtained by non-linear least-squares methods using PRISM 3 and the Cheng–Prusoff equation and represent the mean from at least three different determinations. Apart from human CAs I and II purchased from Merck, all the bacterial CAs were recombinant and obtained in-house. Compounds 4a–j and 5a–j were tested on a large panel of human and bacterial isoenzymes belonging to different CA families, evaluating their inhibitory activity through the CO2 hydration activity assay by means of the stopped-flow technique, and the inhibitory constants (KIs) are reported in Table 1 and Table 2, respectively. In particular, we tested the hypoxic tumor-associated hCAs IX and XII, and bacterial isoforms involved in several infectious diseases, such as those caused by H. pylori (HpαCA and HpβCA), Porphyromonas gingivalis (PgiβCA and PgiγCA), Escherichia coli (EcoβCA), Pseudomonas aeruginosa (PsCA3, belonging to the β-class), Mammaliicoccus (Staphylococcus) sciuri (MscCA, belonging to the β-class), and Streptococcus mutans (SmuCA, belonging to the β-class). The inhibition of human physiologically relevant isoforms I and II was also investigated in order to assess the compounds’ selectivity. Our main aim was to rationalize the structural requirements of sulfonamide-containing compounds useful for targeting HpCAs, in order to gain a larger knowledge for further optimization studies focusing on isoform selectivity. In fact, although the tested human and bacterial isoforms present a low degree of sequence similarity, they catalyze the same reaction and contain the catalytically active zinc ion in the active site. Thus, a comparison of the data obtained from different members of this large superfamily has a high relevance in the field. By observing Table 1 and Table 2, interesting structure–activity relationship (SAR) considerations can be inferred.
# hCA XII [7] = target: T5, hCA XII; experiment: biochemical; conditions: read-out: Human Isoforms / hCA XII
# Protocol: as §1
# hCA IX [8] = target: T9, hCA IX; experiment: biochemical; conditions: read-out: Human Isoforms / hCA IX
# Protocol: as §1
# PsCA3 [9] = target: T7, PsCA3; experiment: biochemical; conditions: read-out: Bacterial Isoforms / Ps CA3
# Protocol: as §1
# hCA I [10] = target: T8, hCA I; experiment: biochemical; conditions: read-out: Human Isoforms / hCA I
# Protocol: as §1
# [11] = read-out: KI (nM) * / Bacterial Isoforms / Hp αCA
# T5 sequence (O43570 30-289 limits assumed): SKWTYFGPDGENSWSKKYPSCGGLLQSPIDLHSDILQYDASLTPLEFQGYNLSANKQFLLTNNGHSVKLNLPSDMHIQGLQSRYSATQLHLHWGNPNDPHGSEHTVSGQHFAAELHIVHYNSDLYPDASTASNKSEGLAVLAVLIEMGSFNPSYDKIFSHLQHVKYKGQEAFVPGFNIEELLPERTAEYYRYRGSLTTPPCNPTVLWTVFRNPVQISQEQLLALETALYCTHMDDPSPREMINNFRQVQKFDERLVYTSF
# T8 sequence (P00915 2-261): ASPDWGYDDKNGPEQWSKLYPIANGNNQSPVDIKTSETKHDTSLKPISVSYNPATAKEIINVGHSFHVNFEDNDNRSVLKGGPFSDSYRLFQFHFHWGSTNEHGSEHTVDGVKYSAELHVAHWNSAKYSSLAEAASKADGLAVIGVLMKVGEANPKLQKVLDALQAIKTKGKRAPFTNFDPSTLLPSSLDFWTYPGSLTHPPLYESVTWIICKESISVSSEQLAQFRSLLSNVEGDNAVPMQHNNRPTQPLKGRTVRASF
# T2 sequence (P61517 whole entry, canonical isoform): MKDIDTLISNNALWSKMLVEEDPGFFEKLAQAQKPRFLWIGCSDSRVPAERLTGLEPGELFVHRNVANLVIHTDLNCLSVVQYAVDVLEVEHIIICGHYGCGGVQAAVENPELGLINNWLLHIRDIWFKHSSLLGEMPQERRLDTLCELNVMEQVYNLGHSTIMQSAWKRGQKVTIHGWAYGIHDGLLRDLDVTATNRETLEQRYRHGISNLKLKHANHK
Compound,Ki (PgiγCA) [nM],Ki (EcoβCA [1]) [nM],Ki (HpαCA; [11]) [nM],Ki (HpβCA) [nM],Ki (hCA XII [2]) [nM],Ki (hCA II) [nM],Ki (PsCA3 [3]) [nM],Ki (hCA I [4]) [nM],Ki (hCA IX [5]) [nM],MBC (H. pylori ATCC 43504) [µg/mL],MIC (H. pylori ATCC 43504) [µg/mL],Ki (PgiβCA) [nM],Ki (HpαCA; read-out: KI (nM) / Bacterial Isoforms / Hp αCA) [nM],Ki (EcoβCA [6]) [µM],Ki (hCA XII [7]) [nM],Ki (hCA IX [8]) [nM],Ki (PsCA3 [9]) [µM],Ki (hCA I [10]) [µM]
"Cc1cc(O)cc(C)c1/N=N/c1ccc(S(N)(=O)=O)cc1 [4g, (E)-4-((4-hydroxy-2,6-dimethylphenyl)diazenyl)benzenesulfonamide]",939,550,142,74.3,63.9,3.7,879,4.9,171,32,16,3670,–,–,–,–,–,–
"COc1cc(/N=N/c2ccc(S(N)(=O)=O)cc2)ccc1O [4b, (E)-4-((4-hydroxy-3-methoxyphenyl)diazenyl)benzenesulfonamide]",837,95.8,120,49.7,21.8,3.3,702,34.8,831,32,32,1920,–,–,–,–,–,–
"COc1cc(O)ccc1/N=N/c1ccc(S(N)(=O)=O)cc1 [4c, (E)-4-((4-hydroxy-2-methoxyphenyl)diazenyl)benzenesulfonamide]",2000,96.3,70.9,17.1,34.7,5.4,221,84.9,545,16,8,3630,–,–,–,–,–,–
"NS(=O)(=O)c1ccc(/N=N/c2ccc(O)c(C(F)(F)F)c2)cc1 [4d, (E)-4-((4-hydroxy-3-(trifluoromethyl)phenyl)diazenyl)benzenesulfonamide]",94.7,738,39,19.4,40.2,4.8,222,20.1,182,128,64,3170,–,–,–,–,–,–
CC1(C)S[C@@H]2[C@H](NC(=O)[C@H](N)c3ccc(O)cc3)C(=O)N2[C@H]1C(=O)O [Amoxicillin],–,–,–,–,–,–,–,–,–,0.064,0.064,–,–,–,–,–,–,–
"Cc1ccc(O)c(/N=N/c2ccc(S(N)(=O)=O)cc2)c1 [4h, (E)-4-((2-hydroxy-5-methylphenyl)diazenyl)benzenesulfonamide]",772,360,130,127,9.6,6.6,980,68.4,184,64,32,3850,–,–,–,–,–,–
CS(=O)(=O)Nc1ccc(N=Nc2ccccc2)cc1 [5i],–,–,–,–,–,–,–,–,–,32,16,–,89.8,6.95,2240,599,9.28,5.99
"Cc1cc(/N=N/c2ccc(S(N)(=O)=O)cc2)c(C)cc1O [4f, (E)-4-((4-hydroxy-2,5-dimethylphenyl)diazenyl)benzenesulfonamide]",472,867,69.4,70.6,56.7,1.9,191,5.7,97.1,32,32,3760,–,–,–,–,–,–
